Source: ChEMBL document CHEMBL3745631, “Discovery of highly potent and selective Bruton's tyrosine kinase inhibitors: Pyridazinone analogs with improved metabolic stability” (Bioorg Med Chem Lett, 2016)

Key:
[1] = target: Casein kinase I isoform alpha (Homo sapiens) (UniProt P48729); experiment: Inhibition of CK1 alpha1 (unknown origin) at 1 uM
[2] = target: Serine/threonine-protein kinase PAK 1 (Homo sapiens) (UniProt Q13153); experiment: Inhibition of PAK1 (unknown origin) at 1 uM
[3] = target: LIM domain kinase 1 (Homo sapiens) (UniProt P53667); experiment: Inhibition of LIMK1 (unknown origin) at 1 uM
[4] = target: Serine/threonine-protein kinase 26 (Homo sapiens) (UniProt Q9P289); experiment: Inhibition of MST4 (unknown origin) at 1 uM
[5] = target: Insulin receptor-related protein (Homo sapiens) (UniProt P14616); experiment: Inhibition of IRR (unknown origin) at 1 uM
Chain of Insulin receptor-related protein (Homo sapiens) (P14616 27-742 limits assumed): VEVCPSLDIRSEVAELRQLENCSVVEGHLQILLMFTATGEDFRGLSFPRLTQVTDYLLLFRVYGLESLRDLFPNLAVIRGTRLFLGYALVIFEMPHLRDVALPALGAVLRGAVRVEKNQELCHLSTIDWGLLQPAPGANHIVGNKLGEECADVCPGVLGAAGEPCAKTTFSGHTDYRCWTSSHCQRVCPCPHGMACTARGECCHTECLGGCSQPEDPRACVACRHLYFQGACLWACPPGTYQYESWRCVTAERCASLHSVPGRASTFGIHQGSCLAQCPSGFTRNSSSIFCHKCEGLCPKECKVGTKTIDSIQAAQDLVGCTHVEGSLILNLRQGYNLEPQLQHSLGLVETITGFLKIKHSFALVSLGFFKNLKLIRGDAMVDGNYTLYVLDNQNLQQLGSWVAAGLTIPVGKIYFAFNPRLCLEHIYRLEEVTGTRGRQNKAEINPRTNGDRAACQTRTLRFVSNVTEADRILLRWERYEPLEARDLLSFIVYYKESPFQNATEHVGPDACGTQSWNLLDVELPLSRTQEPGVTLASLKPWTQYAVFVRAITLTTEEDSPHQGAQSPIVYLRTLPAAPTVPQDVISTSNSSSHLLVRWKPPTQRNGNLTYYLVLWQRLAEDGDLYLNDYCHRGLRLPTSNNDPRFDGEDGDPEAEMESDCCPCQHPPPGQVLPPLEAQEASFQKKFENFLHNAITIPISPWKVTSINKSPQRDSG
Chain of Insulin receptor-related protein (Homo sapiens) (P14616 747-1297 limits assumed): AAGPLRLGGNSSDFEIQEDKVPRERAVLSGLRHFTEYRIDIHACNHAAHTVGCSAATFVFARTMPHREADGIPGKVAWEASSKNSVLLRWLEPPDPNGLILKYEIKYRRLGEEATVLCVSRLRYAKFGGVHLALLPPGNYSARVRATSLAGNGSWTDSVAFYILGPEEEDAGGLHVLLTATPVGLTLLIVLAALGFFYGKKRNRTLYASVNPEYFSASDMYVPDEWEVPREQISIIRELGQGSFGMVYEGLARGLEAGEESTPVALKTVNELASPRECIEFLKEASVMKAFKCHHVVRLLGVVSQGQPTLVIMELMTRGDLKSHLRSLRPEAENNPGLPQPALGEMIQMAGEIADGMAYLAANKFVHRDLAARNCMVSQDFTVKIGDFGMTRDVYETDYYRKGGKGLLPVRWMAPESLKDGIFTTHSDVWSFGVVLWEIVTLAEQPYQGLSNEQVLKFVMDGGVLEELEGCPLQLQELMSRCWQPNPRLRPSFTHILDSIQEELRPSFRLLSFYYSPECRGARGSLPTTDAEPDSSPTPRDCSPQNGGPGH

[6] = target: Ribosomal protein S6 kinase beta-1 (Homo sapiens) (UniProt P23443); experiment: Inhibition of p70S6K (unknown origin) at 1 uM
[7] = target: Myosin light chain kinase (Homo sapiens) (UniProt Q32MK0); experiment: Inhibition of MYLK3 (unknown origin) at 1 uM
[8] = target: Calcium/calmodulin-dependent protein kinase kinase 1 (Homo sapiens) (UniProt Q8N5S9); experiment: Inhibition of CAMKK1 (unknown origin) at 1 uM
[9] = target: Serine/threonine-protein kinase TBK1 (Homo sapiens) (UniProt Q9UHD2); experiment: Inhibition of TBK1 (unknown origin) at 1 uM
[10] = target: Dual specificity protein kinase TTK (Homo sapiens) (UniProt P33981); experiment: Inhibition of TTK (unknown origin) at 1 uM
[11] = target: Calcium/calmodulin-dependent protein kinase type II subunit alpha (Homo sapiens) (UniProt Q9UQM7); experiment: Inhibition of CamK2 alpha (unknown origin) at 1 uM
[12] = target: Tyrosine-protein kinase Lyn (Homo sapiens) (UniProt P07948); experiment: Inhibition of LYN (unknown origin) at 1 uM
[13] = test system: Monocyte; experiment: Inhibition of IC-induced IL-1beta release in human monocytes
[14] = target: Dual specificity mitogen-activated protein kinase kinase 3 (Homo sapiens) (UniProt P46734); experiment: Inhibition of MEK3 (unknown origin) at 1 uM
[15] = target: Tyrosine-protein kinase SYK (Homo sapiens) (UniProt P43405); experiment: Inhibition of Syk (unknown origin) at 1 uM
[16] = target: Casein kinase I isoform delta (Homo sapiens) (UniProt P48730); experiment: Inhibition of CK1 delta (unknown origin) at 1 uM
[17] = target: Activin receptor type-1B (Homo sapiens) (UniProt P36896); experiment: Inhibition of ACVR1B (unknown origin) at 1 uM
[18] = target: Casein kinase I isoform gamma-1 (Homo sapiens) (UniProt Q9HCP0); experiment: Inhibition of CK1 gamma1 (unknown origin) at 1 uM
[19] = target: Serine/threonine-protein kinase Nek9 (Homo sapiens) (UniProt Q8TD19); experiment: Inhibition of NEK9 (unknown origin) at 1 uM
[20] = target: Activin receptor type-1 (Homo sapiens) (UniProt Q04771); experiment: Inhibition of ALK2 (unknown origin) at 1 uM
[21] = target: Serine/threonine-protein kinase N1 (Homo sapiens) (UniProt Q16512); experiment: Inhibition of PRK1 (unknown origin) at 1 uM
[22] = target: Serine/threonine-protein kinase Nek4 (Homo sapiens) (UniProt P51957); experiment: Inhibition of NEK4 (unknown origin) at 1 uM
[23] = target: Serine/threonine-protein kinase 16 (Homo sapiens) (UniProt O75716); experiment: Inhibition of STK16 (unknown origin) at 1 uM
[24] = target: Serine/threonine-protein kinase Sgk2 (Homo sapiens) (UniProt Q9HBY8); experiment: Inhibition of SGK2 (unknown origin) at 1 uM
[25] = target: Cyclin-dependent kinase 1/cyclin B1 (Homo sapiens) (UniProt P06493+P14635); experiment: Inhibition of CDK1/cyclinB (unknown origin) at 1 uM; type: protein-complex assay
[26] = target: Glycogen synthase kinase-3 alpha (Homo sapiens) (UniProt P49840); experiment: Inhibition of GSK3 alpha (unknown origin) at 1 uM
[27] = target: Ephrin type-B receptor 3 (Homo sapiens) (UniProt P54753); experiment: Inhibition of EphB3 (unknown origin) at 1 uM
Chain of Ephrin type-B receptor 3 (Homo sapiens) (P54753 whole entry): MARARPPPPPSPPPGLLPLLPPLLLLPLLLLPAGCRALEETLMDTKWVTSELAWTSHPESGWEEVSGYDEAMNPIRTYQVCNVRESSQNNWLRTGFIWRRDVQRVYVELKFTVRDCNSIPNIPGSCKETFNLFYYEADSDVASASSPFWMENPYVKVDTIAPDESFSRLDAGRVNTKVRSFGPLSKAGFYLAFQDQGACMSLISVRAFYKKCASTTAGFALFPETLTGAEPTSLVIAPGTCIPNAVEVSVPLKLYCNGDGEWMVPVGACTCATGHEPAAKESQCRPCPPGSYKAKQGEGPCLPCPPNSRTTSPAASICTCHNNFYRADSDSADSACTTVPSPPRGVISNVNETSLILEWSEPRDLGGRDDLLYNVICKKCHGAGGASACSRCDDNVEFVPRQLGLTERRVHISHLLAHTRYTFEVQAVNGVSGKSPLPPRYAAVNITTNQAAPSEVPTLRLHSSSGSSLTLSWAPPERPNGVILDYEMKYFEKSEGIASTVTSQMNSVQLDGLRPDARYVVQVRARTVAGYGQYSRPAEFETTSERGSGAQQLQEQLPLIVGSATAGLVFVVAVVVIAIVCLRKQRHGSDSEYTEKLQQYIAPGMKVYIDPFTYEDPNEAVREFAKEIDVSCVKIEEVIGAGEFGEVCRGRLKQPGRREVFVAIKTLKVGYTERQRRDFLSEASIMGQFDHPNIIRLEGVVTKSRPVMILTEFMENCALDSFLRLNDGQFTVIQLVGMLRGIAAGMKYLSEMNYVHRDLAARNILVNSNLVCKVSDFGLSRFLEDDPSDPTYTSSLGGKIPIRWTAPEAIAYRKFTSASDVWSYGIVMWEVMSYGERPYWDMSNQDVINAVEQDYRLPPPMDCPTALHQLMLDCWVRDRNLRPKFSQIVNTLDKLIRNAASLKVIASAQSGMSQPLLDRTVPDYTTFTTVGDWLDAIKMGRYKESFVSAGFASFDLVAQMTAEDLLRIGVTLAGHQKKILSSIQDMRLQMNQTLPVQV

[28] = target: Serine/threonine-protein kinase Sgk3 (Homo sapiens) (UniProt Q96BR1); experiment: Inhibition of SGK3 (unknown origin) at 1 uM
[29] = target: Calcium/calmodulin-dependent protein kinase type 1 (Homo sapiens) (UniProt Q14012); experiment: Inhibition of CaMKI (unknown origin) at 1 uM
[30] = target: Protein kinase C epsilon type (Homo sapiens) (UniProt Q02156); experiment: Inhibition of PKCepsilon (unknown origin) at 1 uM
[31] = target: Homeodomain-interacting protein kinase 2 (Homo sapiens) (UniProt Q9H2X6); experiment: Inhibition of HIPK2 (unknown origin) at 1 uM
[32] = target: RAC-alpha serine/threonine-protein kinase (Homo sapiens) (UniProt P31749); experiment: Inhibition of AKT1 (unknown origin) at 1 uM
[33] = target: Maternal embryonic leucine zipper kinase (Homo sapiens, UniProt Q14680); experiment: Inhibition of MELK (unknown origin)
[34] = target: Protein kinase C eta type (Homo sapiens) (UniProt P24723); experiment: Inhibition of PKCeta (unknown origin) at 1 uM
[35] = organism: Homo sapiens; experiment: Inhibition of PKA (unknown origin) at 1 uM
[36] = test system: Liver microsome; experiment: Intrinsic clearance in human liver microsomes at 1 uM by LC-MS/MS analysis in absence of NADPH; type: ADME
[37] = target: Activated CDC42 kinase 1 (Homo sapiens) (UniProt Q07912); experiment: Inhibition of TNK2 (unknown origin) at 1 uM
Chain of Activated CDC42 kinase 1 (Homo sapiens) (Q07912 whole entry, looked up): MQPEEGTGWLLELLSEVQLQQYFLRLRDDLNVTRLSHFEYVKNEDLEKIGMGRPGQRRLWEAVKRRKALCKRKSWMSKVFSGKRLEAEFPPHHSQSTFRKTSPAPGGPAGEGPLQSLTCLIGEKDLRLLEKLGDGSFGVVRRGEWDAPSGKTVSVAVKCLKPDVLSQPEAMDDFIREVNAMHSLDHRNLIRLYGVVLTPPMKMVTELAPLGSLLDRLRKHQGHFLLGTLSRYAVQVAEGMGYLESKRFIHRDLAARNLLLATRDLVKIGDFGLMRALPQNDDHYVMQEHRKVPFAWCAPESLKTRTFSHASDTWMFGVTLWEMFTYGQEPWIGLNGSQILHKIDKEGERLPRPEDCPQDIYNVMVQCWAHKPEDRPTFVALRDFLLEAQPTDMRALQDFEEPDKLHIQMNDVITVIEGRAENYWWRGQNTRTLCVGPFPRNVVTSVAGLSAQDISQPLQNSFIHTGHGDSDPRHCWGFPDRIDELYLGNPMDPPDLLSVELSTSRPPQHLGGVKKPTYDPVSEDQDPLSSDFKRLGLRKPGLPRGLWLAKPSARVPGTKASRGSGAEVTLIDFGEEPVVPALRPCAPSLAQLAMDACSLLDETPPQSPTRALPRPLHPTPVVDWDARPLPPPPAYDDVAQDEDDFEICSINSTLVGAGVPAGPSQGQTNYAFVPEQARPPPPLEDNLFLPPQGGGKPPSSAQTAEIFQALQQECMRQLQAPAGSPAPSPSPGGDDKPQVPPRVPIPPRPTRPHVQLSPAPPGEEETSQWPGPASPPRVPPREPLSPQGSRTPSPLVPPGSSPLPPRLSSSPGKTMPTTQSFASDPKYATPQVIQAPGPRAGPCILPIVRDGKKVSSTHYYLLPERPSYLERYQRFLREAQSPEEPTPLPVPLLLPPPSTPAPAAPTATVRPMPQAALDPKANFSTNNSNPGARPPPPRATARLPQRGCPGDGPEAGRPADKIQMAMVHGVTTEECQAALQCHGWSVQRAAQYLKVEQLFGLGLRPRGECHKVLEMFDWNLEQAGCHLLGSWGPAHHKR

[38] = target: Insulin receptor (Homo sapiens) (UniProt P06213); experiment: Inhibition of InsR (unknown origin) at 1 uM
[39] = target: Homeodomain-interacting protein kinase 1 (Homo sapiens) (UniProt Q86Z02); experiment: Inhibition of HIPK1 (unknown origin) at 1 uM
Chain of Homeodomain-interacting protein kinase 1 (Homo sapiens) (Q86Z02 whole entry, looked up): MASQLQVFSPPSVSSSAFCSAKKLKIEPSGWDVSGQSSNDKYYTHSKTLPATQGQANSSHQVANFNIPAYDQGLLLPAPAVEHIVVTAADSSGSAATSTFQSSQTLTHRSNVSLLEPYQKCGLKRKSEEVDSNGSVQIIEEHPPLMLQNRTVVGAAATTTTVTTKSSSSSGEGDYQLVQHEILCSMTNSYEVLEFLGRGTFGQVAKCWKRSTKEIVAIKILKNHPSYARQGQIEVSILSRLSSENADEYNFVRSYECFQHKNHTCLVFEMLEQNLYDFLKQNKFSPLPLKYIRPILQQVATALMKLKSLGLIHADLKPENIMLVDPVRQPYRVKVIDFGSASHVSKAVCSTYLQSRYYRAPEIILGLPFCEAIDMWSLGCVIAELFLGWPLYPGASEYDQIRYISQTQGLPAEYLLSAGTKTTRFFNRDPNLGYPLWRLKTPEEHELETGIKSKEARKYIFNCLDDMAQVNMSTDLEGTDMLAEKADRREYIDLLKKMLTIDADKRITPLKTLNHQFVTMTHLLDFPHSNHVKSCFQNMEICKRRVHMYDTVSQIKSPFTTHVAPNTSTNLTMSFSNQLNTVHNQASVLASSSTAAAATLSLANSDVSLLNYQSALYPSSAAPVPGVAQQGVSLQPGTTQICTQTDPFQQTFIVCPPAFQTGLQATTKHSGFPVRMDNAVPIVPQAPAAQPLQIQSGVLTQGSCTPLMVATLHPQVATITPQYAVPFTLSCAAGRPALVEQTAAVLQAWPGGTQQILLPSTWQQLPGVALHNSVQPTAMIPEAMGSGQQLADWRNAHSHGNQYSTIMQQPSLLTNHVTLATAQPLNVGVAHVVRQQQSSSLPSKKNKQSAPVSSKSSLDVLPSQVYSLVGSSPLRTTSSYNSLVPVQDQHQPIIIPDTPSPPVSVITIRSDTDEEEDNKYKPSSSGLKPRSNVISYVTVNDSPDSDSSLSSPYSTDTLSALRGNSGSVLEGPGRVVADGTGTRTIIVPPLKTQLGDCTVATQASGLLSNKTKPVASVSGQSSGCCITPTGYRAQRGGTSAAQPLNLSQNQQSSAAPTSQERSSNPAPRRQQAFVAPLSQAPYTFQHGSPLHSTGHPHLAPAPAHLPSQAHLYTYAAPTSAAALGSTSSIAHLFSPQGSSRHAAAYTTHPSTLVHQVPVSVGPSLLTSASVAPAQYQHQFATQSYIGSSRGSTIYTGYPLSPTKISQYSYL

[40] = target: Protein kinase C alpha type (Homo sapiens) (UniProt P17252); experiment: Inhibition of PKC alpha (unknown origin) at 1 uM
[41] = target: BDNF/NT-3 growth factors receptor (Homo sapiens) (UniProt Q16620); experiment: Inhibition of TrkB (unknown origin) at 1 uM
[42] = target: Receptor tyrosine-protein kinase erbB-4 (Homo sapiens) (UniProt Q15303); experiment: Inhibition of ErbB4 (unknown origin) at 1 uM
[43] = test system: Salmonella typhimurium; experiment: Genotoxicity in Salmonella typhimurium TA100 by Ames test in absence of S9 fraction; type: toxicity, organism-based; details: salmonella enterica subsp. enterica serovar typhimurium
[44] = test system: Cynomolgus monkey; experiment: Clearance in cynomolgus monkey at 1 mg/kg, iv by LC-MS/MS analysis; type: ADME, organism-based, Macaca fascicularis; details: in vivo
[45] = target: Tyrosine-protein kinase Fgr (Homo sapiens, UniProt P09769); experiment: Inhibition of FGR (unknown origin)
[46] = target: Ribosomal protein S6 kinase alpha-3 (Homo sapiens) (UniProt P51812); experiment: Inhibition of Rsk2 (unknown origin) at 1 uM

Chain of Casein kinase I isoform alpha (Homo sapiens) (P48729 2-337 limits assumed): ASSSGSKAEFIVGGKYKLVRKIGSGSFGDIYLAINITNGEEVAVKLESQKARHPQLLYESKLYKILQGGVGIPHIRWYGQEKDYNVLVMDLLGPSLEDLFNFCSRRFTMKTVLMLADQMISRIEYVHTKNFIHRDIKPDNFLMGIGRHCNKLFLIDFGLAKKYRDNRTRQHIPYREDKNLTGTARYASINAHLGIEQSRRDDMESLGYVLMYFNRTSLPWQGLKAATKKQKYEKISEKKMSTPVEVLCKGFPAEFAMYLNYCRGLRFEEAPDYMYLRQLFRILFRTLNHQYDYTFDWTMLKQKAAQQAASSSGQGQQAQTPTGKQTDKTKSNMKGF

Compound `Cc1c(-c2cc(Nc3cc4n(n3)CCN(C)C4)c(=O)[nH]n2)ccc(F)c1NC(=O)c1cc2ccccc2s1` has an inhibition [1] of 4%, an inhibition [2] of 3.4% and an inhibition [3] of -5.5%. For the same compound, the inhibition [4] was 8.6%, the inhibition [5] was 2.3% and the inhibition [6] was -2.8%. The inhibition [7] was 3%, the inhibition [8] was -5.4% and the inhibition [9] was 7.5%. It also gave an inhibition [10] of 7.2%, an inhibition [11] of 2.8% and an inhibition [12] of 23.1%. For the same compound, the EC50 [13] was 22 nM, the inhibition [14] was -1.1% and the inhibition [15] was 5.6%. The inhibition [16] was 4.7%, the inhibition [17] was -3.9% and the inhibition [18] was 6.2%. For the same compound, the inhibition [19] was -7.6%, the inhibition [20] was -2.1% and the inhibition [21] was -3.7%. The inhibition [22] was 1%, the inhibition [23] was 11% and the inhibition [24] was -2.3%. For the same compound, the inhibition [25] was 7.3%, the inhibition [26] was 7.5% and the inhibition [27] was 2.5%. The inhibition [28] was -1.3%, the inhibition [29] was 6.3% and the inhibition [30] was -6.8%. The inhibition [31] was 4.5%, the inhibition [32] was 2.5% and the IC50 [33] was greater than 10000 nM. The inhibition [34] was -8%, the inhibition [35] was -4.8% and the CLH [36] was 6 mL/min/kg. The inhibition [37] was 15.9%, the inhibition [38] was 13.8% and the inhibition [39] was 0.4%. The inhibition [40] was -2.1%, the inhibition [41] was -3.6% and the inhibition [42] was 2.7%. The Activity [43] was “Non-toxic”, the clearance [44] was 4 mL/min/kg and the IC50 [45] was 1030 nM. For the same compound, the inhibition [46] was 1.9%.
